Reference: the supplement of paper PMC10949913

Key:
Assay in all cases: area under concentration-response curve (viability) (AUC (a.u.)); higher = less active
Conditions in all cases: 48 h
[1] = test system: NCI-H295R
Procedure, shortened: (§1)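 For each of three adrenocortical carcinoma cell lines, 500–1,000 cells/well were placed in 5 µL medium in 1,536-well plates. A 23 nL volume of every library compound was added at 11 concentrations. Following 48 h, a 15-minute room-temperature CellTiter-Glo step preceded luminescence reading, with signals normalised per plate to vehicle and empty-well controls. AC50 and area under the curve were derived by curve fitting, retaining only inhibitory or non-responding curve classes.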

[2] = test system: CU-ACC2
Procedure, shortened: as §1

[3] = test system: CU-ACC1
Procedure, shortened: as §1

SMILES | area under concentration-response curve [1] | area under concentration-response curve [2] | area under concentration-response curve [3]
NC/1=N/C(=O)C/2=C(/NCC3CN(CN23)C4=CC=C(C=C4)C(=O)N[C@@H](CCC(O)=O)C(O)=O)N1 (some centres not stated) | 526 | 565 | 475
C[C@]12CC[C@@H]3c4ccc(O)cc4CC[C@H]3[C@@H]1[C@@H](O)[C@@H](O)[C@@H]2O | 520 | 565 | 494
COc1ccc(CC2SC(=O)NC2=O)cc1C(=O)NCc1ccc(C(F)(F)F)cc1 (configuration not stated) | 585 | 645 | 570
CN(C)c1nc(N(C)C)nc(N(C)C)n1 | 476 | 577 | 509
CCC(C)C(N)\C1=N\C(CS1)C(=O)N[C@@H](CC(C)C)C(=O)N[C@H](CCC(O)=O)C(=O)N[C@@H]([C@@H](C)CC)C(=O)N[C@H]2CCCCNC(=O)[C@H](CC(N)=O)NC(=O)[C@@H](CC(O)=O)NC(=O)[C@H](CC3=CN=C[NH]3)NC(=O)[C@@H](CC4=CC=CC=C4)NC(=O)[C@@H](NC(=O)[C@@H](CCCN)NC2=O)[C@@H](C)CC (some centres not stated) | 582 | 682 | 593
C[N]1C=C(C2=C1C=CC=C2)\C3=C(\C(=O)NC3=O)C4=C5CC(CN)CC[N]5C6=C4C=CC=C6 (configuration not stated) | 559 | 620 | 517
NCCCC(O)(P(=O)([O-])O)P(=O)(O)O | 472 | 529 | 511
CC\1=C(C(\N=C(/N1)C2=CC(=NC=C2)Cl)C3=C(F)C=C(Cl)C=C3)/C(=O)NC4=C(F)C=C5[NH]N=CC5=C4 (configuration not stated) | 488 | 466 | 492
N#Cc1ccnc(N2C(=O)CC[C@H]2C(=O)N(c2cncc(F)c2)[C@H](C(=O)NC2CC(F)(F)C2)c2ccccc2Cl)c1 | 560 | 613 | 486
CC1=CC=C2N=C(NC(=O)CS\C3=N\C4=C(\SCC4)C(=O)N3C5=CC=CC=C5)SC2=C1 | 558 | 633 | 538
CN(Cc1cnc2nc(N)nc(N)c2n1)c1ccc(C(=O)N[C@@H](CCC(=O)O)C(=O)O)cc1 | 539 | 615 | 508
CC1C\2C(O)C3C(N(C)C)C(=O)\C(=C(O)/C3(O)C(=O)C2=C(O)/C4=C1C=CC=C4O)C(N)=O (configuration not stated) | 502 | 573 | 473
OC1=C(Cl)C=C(N\C2=C(\C(=O)NC2=O)C3=C(C=CC=C3)[N+]([O-])=O)C=C1 | 507 | 475 | 502
CC(C)OC(=O)C(C(=O)OC(C)C)=C1S\C=C/S1 | 575 | 638 | 517
CN1CC(=O)\N=C1\NC(=O)NC2=CC(=CC=C2)Cl | 486 | 566 | 497
COC1(C[S+]([O-])c2ccccc2)CCN(CCc2c[nH]c3ccc(F)cc23)CC1 (configuration not stated) | 493 | 469 | 477
CCC(C)N1\N=C/N(C1=O)C2=CC=C(C=C2)N3CCN(CC3)C4=CC=C(OC[C@H]5CO[C@@](C[N]6C=NC=N6)(O5)C7=CC=C(Cl)C=C7Cl)C=C4 (some centres not stated) | 574 | 676 | 556
Clc1cccc(C(c2ccc3nc[nH]c3c2)n2ccnc2)c1 (configuration not stated) | 491 | 633 | 534
Cn1c(/C=C/CO)c(CO)c2c1C(=O)C=C(N1CC1)C2=O | 514 | 580 | 461
Nc1ncnc2ccccc12 | 566 | 633 | 534
COc1ccc([C@@H]2Sc3ccccc3N(CCN(C)C)C(=O)[C@@H]2OC(C)=O)cc1 | 533 | 576 | 473
NC(=O)c1ncn([C@@H]2O[C@H](CO)[C@@H](O)[C@H]2O)c1N | 545 | 519 | 418

SMILES | area under concentration-response curve [1] | area under concentration-response curve [2] | area under concentration-response curve [3]
Nc1nc(-c2nn(Cc3ccccc3F)c3ncccc23)ncc1C1CC1 | 544 | 533 | 538
COC1=CC=CC=C1C2=CC=CC(=C2)C/3=C(O)/C4=CC(=C(Cl)C=C4NC3=O)C#N | 562 | 589 | 542
CN(C)CC(C)(C)CNc1nn2c(-c3ccccc3)nnc2cc1C1CCC1 | 469 | 566 | 473
CO[C@H]1C[C@@H]2CC[C@@H](C)[C@@](O)(O2)C(=O)C(=O)N2CCCC[C@H]2C(=O)O[C@H]([C@H](C)C[C@@H]2CC[C@@H](OC(=O)C(C)(CO)CO)[C@H](OC)C2)CC(=O)[C@H](C)/C=C(\C)[C@@H](O)[C@@H](OC)C(=O)[C@H](C)C[C@H](C)/C=C/C=C/C=C/1C | 530 | 483 | 488
CC1(C)S[C@H]2[C@H](NC(=O)[C@@H](N)c3ccc(O)cc3)C(=O)N2[C@H]1C(=O)O | 545 | 597 | 511
CC(C)[C@H]1C(=O)N[C@H](CO)Cc2c[nH]c3cccc(c23)N1C | 575 | 539 | 384
COc1ccc(C(=O)N2CCN(c3ccc4c(c3)CCC(=O)N4)CC2)cc1OC | 554 | 562 | 458
CCOC(=O)Nc1ccc(NCc2ccc(F)cc2)nc1N | 504 | 439 | 446
C[C@@H]1CC[C@@]2(OC1)OC1CC3C4CC=C5CC(O)CCC5(C)C4CCC3(C)C1[C@@H]2C (some centres not stated) | 465 | 527 | 470
CO[C@H]1/C=C/O[C@@]2(C)Oc3c(C)c(O)c4c(O)c(c(/C=N/N5CCN(C)CC5)c(O)c4c3C2=O)NC(=O)/C(C)=C\C=C\[C@H](C)[C@H](O)[C@@H](C)[C@@H](O)[C@@H](C)[C@H](OC(C)=O)[C@@H]1C | 560 | 624 | 550
CC(/C=C1\SC(=S)N(CC(=O)O)C1=O)=C\c1ccccc1 | 492 | 594 | 494
Cc1ccc(C(=O)c2cc(O)c(O)c([N+](=O)[O-])c2)cc1 | 598 | 645 | 551
COc1ccc([C@@H]2CNC(=O)C2)cc1OC1CCCC1 | 516 | 457 | 432
CC1(C)NC(=O)N(c2ccc([N+](=O)[O-])c(C(F)(F)F)c2)C1=O | 543 | 634 | 511
CC[C@@H](Oc1cccc(CN(CCCOc2ccc(OC)cc2)c2nc3ccccc3o2)c1)C(=O)O | 519 | 571 | 562
CC(C)OC(=O)C(C)(C)Oc1ccc(C(=O)c2ccc(Cl)cc2)cc1 | 517 | 608 | 593
C[C@H](c1ccc(F)cc1CCCC(=O)O)N(c1cc(F)ccc1F)[S+](=O)([O-])c1ccc(Cl)cc1 | 553 | 596 | 519
COc1cc(Nc2ncc(F)c(Nc3ccc4c(n3)NC(=O)C(C)(C)O4)n2)cc(OC)c1OC | 563 | 612 | 410
CC1COC2=C3N1\C=C(C(O)=O)/C(=O)C3=CC(=C2N4CCN(C)CC4)F (configuration not stated) | 517 | 537 | 474
COc1ccc(-c2ccc3cc(C(=O)O)ccc3c2)cc1C12CC3CC(CC(C3)C1)C2 | 479 | 518 | 477
CCC(CCCC)COC(=O)C(\C#N)=C(\c1ccccc1)c2ccccc2 (configuration not stated) | 583 | 667 | 540
CC1(C)CCC(=C(\C1)C2=CC=C(Cl)C=C2)/CN3CCN(CC3)C4=CC(=C(C=C4)C(=O)N[S+]([O-])(=O)C5=CC=C(NCC6CCOCC6)C(=C5)[N+]([O-])=O)OC7=CN=C8[NH]C=CC8=C7 | 478 | 573 | 511
